According to PubChem BioAssay AID1963961 (Molecular Pharmacology Branch, DTP, NCI, 2024):

System: K98450-129-R-PDC multicell spheroids, viability
Assay: Anticancer human tumor K98450-129-R-PDC patient-derived colon adenocarcinoma cell line growth inhibition [PI3K]
Details: for IC50: curve of first compound; for viability, T/C: stronger effect = lower value
How it was run: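 We assembled tumor spheroids that included a stromal compartment of HUVEC and MSCs, then exposed them to targeted agents alone and together with PI3K pathway inhibitors. Concentration series descended by half-log from clinically achievable Cmax levels. Viability served as the endpoint.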

[1] = second compound 0.00316 µM, first compound 0.0316 µM
[2] = second compound 0.00316 µM, first compound 0.1 µM
[3] = second compound 0.00316 µM, first compound 0.316 µM
[4] = second compound 0.00316 µM, first compound 1 µM
[5] = second compound 0.00316 µM, first compound 3.16 µM
[6] = second compound 0.00316 µM, first compound 10 µM
[7] = second compound 0.01 µM, first compound 0.0316 µM
[8] = second compound 0.01 µM, first compound 0.1 µM
[9] = second compound 0.01 µM, first compound 0.316 µM
[10] = second compound 0.01 µM, first compound 1 µM
[11] = second compound 0.01 µM, first compound 3.16 µM
[12] = second compound 0.01 µM, first compound 10 µM
[13] = second compound 0.0316 µM, first compound 0.0316 µM
[14] = second compound 0.0316 µM, first compound 0.1 µM
[15] = second compound 0.0316 µM, first compound 0.316 µM
[16] = second compound 0.0316 µM, first compound 1 µM
[17] = second compound 0.0316 µM, first compound 3.16 µM
[18] = second compound 0.0316 µM, first compound 10 µM
[19] = second compound 0.1 µM, first compound 0.0316 µM
[20] = second compound 0.1 µM, first compound 0.1 µM
[21] = second compound 0.1 µM, first compound 0.316 µM
[22] = second compound 0.1 µM, first compound 1 µM
[23] = second compound 0.1 µM, first compound 3.16 µM
[24] = second compound 0.1 µM, first compound 10 µM
[25] = second compound 0.316 µM, first compound 0.0316 µM
[26] = second compound 0.316 µM, first compound 0.1 µM
[27] = second compound 0.316 µM, first compound 0.316 µM
[28] = second compound 0.316 µM, first compound 1 µM
[29] = second compound 0.316 µM, first compound 3.16 µM
[30] = second compound 0.316 µM, first compound 10 µM
[31] = second compound 1 µM, first compound 0.0316 µM
[32] = second compound 1 µM, first compound 0.1 µM
[33] = second compound 1 µM, first compound 0.316 µM
[34] = second compound 1 µM, first compound 1 µM
[35] = second compound 1 µM, first compound 3.16 µM
[36] = second compound 1 µM, first compound 10 µM
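Note: spheroids exposed to agents for seven days before read-out.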

`C=CC(=O)N1CCN(c2nc(=O)n(-c3c(C)ccnc3C(C)C)c3nc(-c4c(O)cccc4F)c(F)cc23)C(C)C1` (stereo unspecified) + CC(Nc1ccc2c(c1)OCCn1cc(N3C(=O)OCC3C(F)F)nc1-2)C(N)=O was tested, and the IC50 (second compound 0.00316 µM) was 3.53 µM, the IC50 (second compound 0.01 µM) was 3.98 µM and the IC50 (second compound 0.0316 µM) was 3.99 µM. For the same molecule, the IC50 (second compound 0.1 µM) was 3.02 µM, the IC50 (second compound 0.316 µM) was 2.2 µM and the IC50 (second compound 1 µM) was 1.87 µM. The viability, T/C [1] was 108%, the viability, T/C [2] was 92.8% and the viability, T/C [3] was 95.1%. The viability, T/C [4] was 76.7%, the viability, T/C [5] was 50.8% and the viability, T/C [6] was 31.1%. It also gave a viability, T/C [7] of 108%, a viability, T/C [8] of 95.8% and a viability, T/C [9] of 110%. It also gave a viability, T/C [10] of 83.8%, a viability, T/C [11] of 56.5% and a viability, T/C [12] of 28.9%. For the same molecule, the viability, T/C [13] was 107%, the viability, T/C [14] was 97.7% and the viability, T/C [15] was 95.5%. It also gave a viability, T/C [16] of 79.7%, a viability, T/C [17] of 54.1% and a viability, T/C [18] of 31%. For the same molecule, the viability, T/C [19] was 92.4%, the viability, T/C [20] was 100% and the viability, T/C [21] was 94.8%. The viability, T/C [22] was 82.8%, the viability, T/C [23] was 48.8% and the viability, T/C [24] was 24.9%. For the same molecule, the viability, T/C [25] was 88.7%, the viability, T/C [26] was 97.7% and the viability, T/C [27] was 107%. For the same molecule, the viability, T/C [28] was 75.4%, the viability, T/C [29] was 39.3% and the viability, T/C [30] was 25.2%. It also gave a viability, T/C [31] of 85.6%, a viability, T/C [32] of 92.1% and a viability, T/C [33] of 83.7%. For the same molecule, the viability, T/C [34] was 67%, the viability, T/C [35] was 35.8% and the viability, T/C [36] was 19%.

In the case of `CC(Cn1ccc(-c2ccc(C#N)c(Cl)c2)n1)NC(=O)c1cc(C(C)O)[nH]n1` (stereo unspecified) + CC(Nc1ccc2c(c1)OCCn1cc(N3C(=O)OCC3C(F)F)nc1-2)C(N)=O, the IC50 (second compound 0.00316 µM) is reported as greater than 10 µM, the IC50 (second compound 0.01 µM) is reported as greater than 10 µM and the IC50 (second compound 0.0316 µM) is reported as greater than 10 µM. For the same molecule, the IC50 (second compound 0.1 µM) was greater than 10 µM, the IC50 (second compound 0.316 µM) was greater than 10 µM and the IC50 (second compound 1 µM) was greater than 10 µM. For the same molecule, the viability, T/C [1] was 111%, the viability, T/C [2] was 99.6% and the viability, T/C [3] was 105%. For the same molecule, the viability, T/C [4] was 101%, the viability, T/C [5] was 105% and the viability, T/C [6] was 106%. The viability, T/C [7] was 113%, the viability, T/C [8] was 98.6% and the viability, T/C [9] was 102%. It also gave a viability, T/C [10] of 98.4%, a viability, T/C [11] of 101% and a viability, T/C [12] of 111%. It also gave a viability, T/C [13] of 102%, a viability, T/C [14] of 109% and a viability, T/C [15] of 101%. For the same molecule, the viability, T/C [16] was 96.2%, the viability, T/C [17] was 101% and the viability, T/C [18] was 102%. The viability, T/C [19] was 98.2%, the viability, T/C [20] was 100% and the viability, T/C [21] was 103%. It also gave a viability, T/C [22] of 95.2%, a viability, T/C [23] of 109% and a viability, T/C [24] of 95%. The viability, T/C [25] was 92.6%, the viability, T/C [26] was 98% and the viability, T/C [27] was 97.7%. The viability, T/C [28] was 94.1%, the viability, T/C [29] was 104% and the viability, T/C [30] was 91.9%. For the same molecule, the viability, T/C [31] was 87.7%, the viability, T/C [32] was 91.6% and the viability, T/C [33] was 91.7%. The viability, T/C [34] was 86.2%, the viability, T/C [35] was 90.4% and the viability, T/C [36] was 92.3%.

Work on `Cn1nccc1Nc1nccc(-c2ccn(C(CO)c3ccc(Cl)c(F)c3)c(=O)c2)n1` (stereo unspecified) + CC(Nc1ccc2c(c1)OCCn1cc(N3C(=O)OCC3C(F)F)nc1-2)C(N)=O yielded an IC50 (second compound 0.00316 µM) greater than 10 µM, an IC50 (second compound 0.01 µM) greater than 10 µM and an IC50 (second compound 0.0316 µM) greater than 10 µM. It also gave an IC50 (second compound 0.1 µM) greater than 10 µM, an IC50 (second compound 0.316 µM) greater than 10 µM and an IC50 (second compound 1 µM) greater than 10 µM. For the same molecule, the viability, T/C [1] was 109%, the viability, T/C [2] was 96.3% and the viability, T/C [3] was 107%. It also gave a viability, T/C [4] of 99.2%, a viability, T/C [5] of 101% and a viability, T/C [6] of 94.2%. For the same molecule, the viability, T/C [7] was 108%, the viability, T/C [8] was 97.5% and the viability, T/C [9] was 99.1%. It also gave a viability, T/C [10] of 94.7%, a viability, T/C [11] of 98.8% and a viability, T/C [12] of 88.7%. For the same molecule, the viability, T/C [13] was 103%, the viability, T/C [14] was 103% and the viability, T/C [15] was 96.5%. The viability, T/C [16] was 94.4%, the viability, T/C [17] was 99.2% and the viability, T/C [18] was 91%. For the same molecule, the viability, T/C [19] was 95.5%, the viability, T/C [20] was 98.5% and the viability, T/C [21] was 98.2%. For the same molecule, the viability, T/C [22] was 93.1%, the viability, T/C [23] was 98.9% and the viability, T/C [24] was 88.7%. For the same molecule, the viability, T/C [25] was 91.5%, the viability, T/C [26] was 90.7% and the viability, T/C [27] was 101%. It also gave a viability, T/C [28] of 96.2%, a viability, T/C [29] of 99.4% and a viability, T/C [30] of 87.4%. For the same molecule, the viability, T/C [31] was 83.6%, the viability, T/C [32] was 84.4% and the viability, T/C [33] was 91%. It also gave a viability, T/C [34] of 87.7%, a viability, T/C [35] of 90.9% and a viability, T/C [36] of 82.2%.
